Test results: patent publication US12319681B2, “Tripartite androgen receptor eliminators, methods and uses thereof” (SPG Therapeutics, Inc., priority 2017, dated 2025)
Where two headings read alike, the source gives them in different places.

Experiments:
androgen receptor (AR) = biological target: T1, androgen receptor (AR) (Homo sapiens, UniProt P10275); assay: Keratinocyte AR Reporter Gene Assay with washout (sustained effects); format: cell-based; conditions: 7.0 μM for 24 hours
T1 construct: human keratinocytes transfected with an AR luciferase reporter gene; endogenous in cells; host or cells: normal human adult primary epidermal keratinocytes (ATCC PCS-200-011)
T1 sequence (P10275 1-920): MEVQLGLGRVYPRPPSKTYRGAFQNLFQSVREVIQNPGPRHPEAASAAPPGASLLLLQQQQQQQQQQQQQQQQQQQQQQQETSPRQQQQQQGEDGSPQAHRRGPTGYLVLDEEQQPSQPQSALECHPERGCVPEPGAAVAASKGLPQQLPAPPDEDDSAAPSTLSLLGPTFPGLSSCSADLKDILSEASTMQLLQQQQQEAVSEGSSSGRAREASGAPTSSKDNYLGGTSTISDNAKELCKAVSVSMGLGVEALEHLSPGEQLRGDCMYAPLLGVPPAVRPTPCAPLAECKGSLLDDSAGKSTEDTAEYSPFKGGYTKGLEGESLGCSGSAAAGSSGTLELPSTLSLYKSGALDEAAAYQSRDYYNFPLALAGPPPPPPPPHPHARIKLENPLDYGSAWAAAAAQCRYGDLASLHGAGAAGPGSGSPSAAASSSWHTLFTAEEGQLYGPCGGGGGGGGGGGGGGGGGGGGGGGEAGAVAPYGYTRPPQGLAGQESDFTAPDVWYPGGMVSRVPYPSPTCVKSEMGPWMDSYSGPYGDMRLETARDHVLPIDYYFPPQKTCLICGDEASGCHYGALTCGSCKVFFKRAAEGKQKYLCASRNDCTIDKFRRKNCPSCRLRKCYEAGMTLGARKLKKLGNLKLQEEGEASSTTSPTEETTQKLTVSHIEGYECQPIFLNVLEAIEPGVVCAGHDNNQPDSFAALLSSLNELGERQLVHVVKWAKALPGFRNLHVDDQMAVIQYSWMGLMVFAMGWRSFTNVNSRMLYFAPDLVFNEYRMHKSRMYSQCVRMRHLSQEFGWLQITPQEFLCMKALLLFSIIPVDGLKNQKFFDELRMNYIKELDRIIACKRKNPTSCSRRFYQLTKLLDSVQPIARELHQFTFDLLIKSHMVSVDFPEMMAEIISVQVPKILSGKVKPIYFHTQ
Method: Reporter gene activity was measured following two days or three days of additional cell culture in the absence of AR antagonists. AR reporter gene activity reduction was calculated as follows: 1−(average signal (treatment group)/(average signal (treatment group, without drug, same washout period).

[1] = Human Skin Penetration Assays (Franz-cell, HTS station); format: in vitro ADME; conditions: 8 hours of exposure
Method: To examine the penetration ability of SPG-003 formulation, two different assays were conducted. The SPG-003 formulation was prepared by adding SPG-003 (final concentration 1.0% by weight) to a mixture comprising 30% denatured alcohol. 49% IPM, 20% Transcutol and sonicaing this mixture until the compound was dissolved.
Human cadaver skin tissue was purchased from a tissue bank in the U.S. Two lots of the dermatomed skin tissue were used. Donor demographics: tissue 08033 (average thickness: 397 μm): […], […], […], and anatomical site=abdomen; tissue 08696 (average thickness; 1,040 μm): […], […], […], and anatomical site=abdomen. The thickness was measured using a digital snap gage. Duplicate for each donor (N=2). The tissue was received in dry ice packaging. It was stored at −20° C. until use.
After passing initial visual inspection, barrier integrity of the skin tissue was evaluated using transepidermal electrical resistance measurement (TEER measurement). […] Prior to the skin absorption and penetration study, electrical resistance value for each lot of human skin tissue was evaluated. […] Transepidermal electrical resistance value (TEER measurement, Z value) was measured. […] It was determined that the threshold TEER value was 6.0 KOhms for donor 08033 and 10 KOhms for donor 08696. […]
The data collection time point was 8 hours. […] The extracts were collected and ready for analysis. […]

[2] = system: normal Human Adult Primary Epidermal Keratinocyte cell line; conditions: 24 h
Method: For the Keratinocyte assay, normal Human Adult Primary Epidermal Keratinocyte cell line (ATCC PCS-200-011) was maintained in EPIUFE® Medium, with 60 μM calcium (Thermo MEPISOOCA) supplemented with Human Keratinocyte Growth Supplement, 100 U/mL penicillin, and 100 μg/mL streptomycin at 37° C. with 5% C02. For experiments, cells were seeded at 70% confluence per well in 100 μL of medium in 96-well plates. […] After 16 hours, medium was removed and replaced with dosing medium.
A 5α-Androstan-17β-ol-3-one (DHT) stock solution was prepared at 1,000× in ethanol. […] Dosing medium was prepared at the time of treatment by serial diluting stock solution into medium. Ethanol concentrations in media never exceeded 0.1%. […] Negative control wells contained 100 μL medium/well with 1 μL of ethanol/mL of medium and an appropriate amount of DMSO. Each plate also contained 1.0 nM DHT with an ARE or without an ARE as a positive control. Cells were incubated 24 hours at 37° C. without CO2.
To assess for cell viability, cells were first visually examined under a phase-contrast microscope to record cell confluence, morphological changes, and presence of drug crystallization as well as to observe signs of cytotoxity such as, e.g., detachment, vacuolization, membrane degradation, or lack of phase brightness. After microscopic inspection, a Trypan Blue exclusion assay was performed to assess cell viability and cell number for each well. Each well was washed with 0.5 mL volume of PBS. 30 µL of Trypan Blue was added to each well for 5-10 minutes. Total cell number and total viable cell number will be counted from 1 number of fields per well, in triplicate.

[3] = system: normal Human Adult Primary Epidermal Keratinocyte cell line; conditions: 72 h
Method: For the Keratinocyte assay, normal Human Adult Primary Epidermal Keratinocyte cell line (ATCC PCS-200-011) was maintained in EPIUFE® Medium, with 60 μM calcium (Thermo MEPISOOCA) supplemented with Human Keratinocyte Growth Supplement, 100 U/mL penicillin, and 100 μg/mL streptomycin at 37° C. with 5% C02. For experiments, cells were seeded at 70% confluence per well in 100 μL of medium in 96-well plates. Reverse transfection was done on the cells using Lipofectamine 3000 (Life Technologies) with plasmids according to manufacturer's instructions. Briefly, 0.3 μL transfection reagent per 100 ng DNA were incubated with P3000 reagent and Opti-Mem prior to addition of cells. After 16 hours, medium was removed and replaced with dosing medium.
Each ARE tested was prepared in DMSO. Dosing medium was prepared at the time of treatment by serial diluting stock solution into medium. Ethanol concentrations in media never exceeded 0.1%. […] Negative control wells contained 100 L medium/well with 1 μL of ethanol/mL of medium and an appropriate amount of DMSO. […] Cells were incubated 72 hours at 37° C. without CO2.

Structure (SMILES): CC12CCC(=O)C=C1C[C@@H](SC(=O)CC13CC4CC(CC(C4)C1)C3)C1C2CCC2(C)C1CC[C@@]21CCC(=O)O1 (stereo partly shown) [SPG-003]
- AR reporter gene activity reduction (androgen receptor (AR); Washout Period 0 days): 89 ± 1.0%
- AR reporter gene activity reduction (androgen receptor (AR); Washout Period 2 days): 64 ± 0.3%
- skin penetration (in words) [1]: limited amount
- skin retention in epidermis and dermis (in words) [1]: good amount
- Cell Viability ([2]; 0.1 μM): 93%
- Cell Viability ([2]; 1 μM): 93%
- Cell Viability ([2]; 3 μM): 94%
- Cell Viability ([2]; 10 μM): 93%
- Cell Viability ([3]; 0.62 μM): 92.16 ± 1.30
- Cell Viability ([3]; 1.85 μM): 73.46 ± 1.11
- Cell Viability ([3]; 5.56 μM): 66.12 ± 3.09
- Cell Viability ([3]; 16.67 μM): 55.11 ± 0.16
- Cell Viability ([3]; 50 μM): 38.67 ± 2.25
